Experimental data reported in patent US11466023B2, “Combination of a Mcl-1 inhibitor and a standard of care treatment for hematologic cancers, uses and pharmaceutical compositions thereof” (LES LABORATOIRES SERVIER, priority 2017, dated 2022).
Like-named read-outs stand apart in the source and are kept apart here.

Legend:
[1] = test system: mononuclear cells from AML patient samples; test: Cell viability assay (Sytox blue flow cytometry) in primary AML samples; format: cell-based, human; conditions: Homo sapiens, 48 h, combination at 1:1 ratio, read-out: 50% lethal concentration (LC50)
Procedure: Bone marrow samples from patients with AML were collected after informed consent in accordance with guidelines approved by The Alfred Hospital Human research ethics committee.
Mononuclear cells were isolated by density-gradient centrifugation Ficoll-Hypaque (GE Healthcare, Australia) density-gradient centrifugation and red cell lysis was performed using 0.156 M NH4Cl, 0.017 M Tris-HCl pH 7.2 as previously described (Rijal et al., Blood 2015, 125, 2815-2824). Cells were then re-suspended in phosphate-buffered saline containing 2% Fetal Bovine serum (FBS; Sigma, Australia). Mononuclear cells were then suspended in RPMI-1640 (GIBCO, Australia) medium containing penicillin and streptomycin (GIBCO) and heat inactivated fetal bovine serum 15% (Sigma). Cells were washed in phosphate-buffered saline (PBS) containing 2% FBS prior to use.
Freshly purified mononuclear cells from AML patient samples were adjusted to a concentration of 2.5×10^5/mL and 100 μL of cells aliquoted per well into 96 well plates (Sigma). Cells were then treated with idarubicin and Compound 2 over a […] concentration range from 1 nM to 10 μM for 48 hours. For combinations assays, drugs were added at a 1:1 ratio from 1 nM to 10 μM and cells were incubated at 37° C. 5% CO2. Cells were then stained with Sytox blue nucleic acid stain (Invitrogen, Australia) and fluorescence measured by flow cytometric analysis using the LSR-II Fortessa (Becton Dickinson, Australia). FACSDiva software was used for data collection, and FlowJo software for analysis. Blast cells were gated using forward and side scatter properties. Viable cells excluding Sytox blue were determined at 6 concentrations for each drug and the 50% lethal concentration (LC50, in μM) determined.

[2] = test system: OCI-AML3 AML cell line; test: Single agent cell viability (CellTiterGlo); format: cell-based; conditions: Homo sapiens, OCI-AML-3, 72 h; OCI-AML3, single agent, 3 days incubation, CellTiterGlo; read-out: IC50
Procedure: (§1) Cell lines were cultured at 37° C. in a humidified atmosphere containing 5% CO2 and expanded in T-150 flasks. […] In order to analyse the activity of the compounds as single agents, cells were seeded and treated with nine 2-fold serial dilutions of each compound dispensed individually directly into the cell assay plates. […] All the experiments were performed in triplicates. Luminescence was quantified on a multipurpose plate reader. Single agent IC50s were calculated using standard four-parametric curve fitting.

[3] = test system: PL-21 AML cell line; test: Single agent cell viability (CellTiterGlo); format: cell-based; conditions: 72 h; PL-21, single agent, 3 days incubation, CellTiterGlo; read-out: IC50
Procedure: as §1

[4] = test system: Nomo-1 AML cell line; test: Single agent cell viability (CellTiterGlo); format: cell-based; conditions: Homo sapiens, 72 h; Nomo-1, single agent, 3 days incubation, CellTiterGlo; read-out: IC50
Procedure: as §1

[5] = test system: ML-2 AML cell line; test: Single agent cell viability (CellTiterGlo); format: cell-based; conditions: 72 h; ML-2, single agent, 3 days incubation, CellTiterGlo; read-out: IC50
Procedure: as §1

[6] = test system: Kasumi-1 AML cell line; test: Single agent cell viability (CellTiterGlo); format: cell-based; conditions: Homo sapiens, 72 h; Kasumi-1, single agent, 3 days incubation, CellTiterGlo; read-out: IC50
Procedure: as §1

[7] = test system: MV4; 11 AML cell line; test: Single agent cell viability (CellTiterGlo); format: cell-based; conditions: Homo sapiens, 72 h; MV4; 11, single agent, 3 days incubation, CellTiterGlo; read-out: IC50
Procedure: as §1

[8] = test system: THP-1 AML cell line; test: Single agent cell viability (CellTiterGlo); format: cell-based; conditions: Homo sapiens, 72 h; THP-1, single agent, 3 days incubation, CellTiterGlo; read-out: IC50
Procedure: as §1

[9] = test system: KG1a AML cell line; test: Single agent cell viability (CellTiterGlo); format: cell-based; conditions: Homo sapiens, KG-1a, 72 h; KG1a, single agent, 3 days incubation, CellTiterGlo; read-out: IC50
Procedure: as §1

[10] = test system: EOL-1 AML cell line; test: Single agent cell viability (CellTiterGlo); format: cell-based; conditions: Homo sapiens, EOL1, 72 h; EOL-1, single agent, 3 days incubation, CellTiterGlo; read-out: IC50
Procedure: as §1

[11] = test system: KG1 AML cell line; test: Single agent cell viability (CellTiterGlo); format: cell-based; conditions: 72 h; KG1, single agent, 3 days incubation, CellTiterGlo; read-out: IC50
Procedure: as §1

[12] = test system: HL-60 AML cell line; test: Single agent cell viability (CellTiterGlo); format: cell-based; conditions: Homo sapiens, 72 h; HL-60, single agent, 3 days incubation, CellTiterGlo; read-out: IC50
Procedure: as §1

[13] = test system: GDM-1 AML cell line; test: Single agent cell viability (CellTiterGlo); format: cell-based; conditions: Homo sapiens, 72 h; GDM-1, single agent, 3 days incubation, CellTiterGlo; read-out: IC50
Procedure: as §1

[14] = test system: MOLM-13 AML cell line; test: Single agent cell viability (CellTiterGlo); format: cell-based; conditions: Homo sapiens, 72 h; MOLM-13, single agent, 3 days incubation, CellTiterGlo; read-out: IC50
Procedure: as §1

SMILES: CC(=O)[C@]1(O)Cc2c(O)c3c(c(O)c2[C@@H](O[C@H]2C[C@H](N)[C@H](O)[C@H](C)O2)C1)C(=O)c1ccccc1C3=O [Idarubicin, idarubicin]
- CC50 ([1]; Patient AML 6200840, 48 hours): 0.384 µM
- CC50 ([1]; Patient AML AH0131936, 48 hours): 0.886 µM
- CC50 ([1]; Patient AML AH0465385, 48 hours): 5.13 µM
- CC50 ([1]; Patient AML AH0607688, 48 hours): 0.593 µM
- CC50 ([1]; Patient AML AH0979006, 48 hours): 0.00107 µM
- CC50 ([1]; Patient AML AH1081582, 48 hours): 0.184 µM
- CC50 ([1]; Patient AML AH1228742, 48 hours): 404 µM
- CC50 ([1]; Patient AML AH6120264, 48 hours): 0.328 µM
- CC50 ([1]; Patient AML AH6181414_2, 48 hours): 3.47 µM
- CC50 ([1]; Patient AML AH6202849, 48 hours): 2.87 µM
- CC50 ([1]; Patient AML AH6208160, 48 hours): 1.75 µM
- CC50 ([1]; Patient AML AH6208654, 48 hours): 0.308 µM
- CC50 ([1]; Patient AML AH6210946, 48 hours): 0.105 µM
- CC50 ([1]; Patient AML AH6214498, 48 hours): 0.00111 µM
- CC50 ([1]; Patient AML AH6217528, 48 hours): 0.0335 µM
- CC50 ([1]; Patient AML AH6219953, 48 hours): 4.37 µM
- CC50 ([1]; Patient AML AH6220847, 48 hours): 0.0144 µM
- CC50 ([1]; Patient AML AH6223646, 48 hours): 0.315 µM
- CC50 ([1]; Patient AML AH6224104, 48 hours): 192 µM
- CC50 ([1]; Patient AML AH6229985, 48 hours): 0.00138 µM
- CC50 ([1]; Patient AML AH6607085, 48 hours): 0.563 µM
- CC50 ([1]; Patient AML AH6615742, 48 hours): 2.93 µM
- CC50 ([1]; Patient AML AH6627892, 48 hours): 2.2 µM
- IC50 [2]: 0.02 µM
- IC50 [3]: 0.023 µM
- IC50 [4]: 0.028 µM
- IC50 [5]: 0.01 µM
- IC50 [6]: 0.003 µM
- IC50 [7]: 0.001 µM
- IC50 [8]: 0.024 µM
- IC50 [9]: 0.01 µM
- IC50 [10]: 0.002 µM
- IC50 [11]: 0.006 µM
- IC50 [12]: 0.002 µM
- IC50 [13]: 0.008 µM
- IC50 [14]: 0.003 µM
